From patent publication US8598314B2 (priority 2007, dated 2013) come the findings set out here.

Data set [1] is described as follows: Peptide stability in human kidney brush border membranes. To be noted: Table 6.
Description: The tubes were incubated in VorTemp 56™ (Eurotech Labs, UK) at 37° C. vortexed at 500 RPM. At time points of 0, 1, 2, 3, 4, and 5 hours, 200 μl STOP solution (50% ACN, 1% formic acid) was added to a given tube, and the samples were allowed to incubate until the end of the experiment. The samples were collected after 5 hours, centrifuged, and 200 μl of the supernatants were transferred into mass spectrometry vials. The intensities of the mother ions in each vial were analyzed with API 150EX™ mass spectrometer (Applied Biosystems, Foster City, Calif.) and quantified using the ANALYST™ program.
The hKBBM assay was also performed in the presence of valinepyrrolidide, a DPP-IV inhibitor.
Data set [2] addresses T1, ACE from rabbit lung (Oryctolagus cuniculus, UniProt P12822).
T1 construct: ACE from rabbit lung; purchased Sigma Chemical Co; host or cells: rabbit lung tissue
T1 sequence (P12822 34-1310): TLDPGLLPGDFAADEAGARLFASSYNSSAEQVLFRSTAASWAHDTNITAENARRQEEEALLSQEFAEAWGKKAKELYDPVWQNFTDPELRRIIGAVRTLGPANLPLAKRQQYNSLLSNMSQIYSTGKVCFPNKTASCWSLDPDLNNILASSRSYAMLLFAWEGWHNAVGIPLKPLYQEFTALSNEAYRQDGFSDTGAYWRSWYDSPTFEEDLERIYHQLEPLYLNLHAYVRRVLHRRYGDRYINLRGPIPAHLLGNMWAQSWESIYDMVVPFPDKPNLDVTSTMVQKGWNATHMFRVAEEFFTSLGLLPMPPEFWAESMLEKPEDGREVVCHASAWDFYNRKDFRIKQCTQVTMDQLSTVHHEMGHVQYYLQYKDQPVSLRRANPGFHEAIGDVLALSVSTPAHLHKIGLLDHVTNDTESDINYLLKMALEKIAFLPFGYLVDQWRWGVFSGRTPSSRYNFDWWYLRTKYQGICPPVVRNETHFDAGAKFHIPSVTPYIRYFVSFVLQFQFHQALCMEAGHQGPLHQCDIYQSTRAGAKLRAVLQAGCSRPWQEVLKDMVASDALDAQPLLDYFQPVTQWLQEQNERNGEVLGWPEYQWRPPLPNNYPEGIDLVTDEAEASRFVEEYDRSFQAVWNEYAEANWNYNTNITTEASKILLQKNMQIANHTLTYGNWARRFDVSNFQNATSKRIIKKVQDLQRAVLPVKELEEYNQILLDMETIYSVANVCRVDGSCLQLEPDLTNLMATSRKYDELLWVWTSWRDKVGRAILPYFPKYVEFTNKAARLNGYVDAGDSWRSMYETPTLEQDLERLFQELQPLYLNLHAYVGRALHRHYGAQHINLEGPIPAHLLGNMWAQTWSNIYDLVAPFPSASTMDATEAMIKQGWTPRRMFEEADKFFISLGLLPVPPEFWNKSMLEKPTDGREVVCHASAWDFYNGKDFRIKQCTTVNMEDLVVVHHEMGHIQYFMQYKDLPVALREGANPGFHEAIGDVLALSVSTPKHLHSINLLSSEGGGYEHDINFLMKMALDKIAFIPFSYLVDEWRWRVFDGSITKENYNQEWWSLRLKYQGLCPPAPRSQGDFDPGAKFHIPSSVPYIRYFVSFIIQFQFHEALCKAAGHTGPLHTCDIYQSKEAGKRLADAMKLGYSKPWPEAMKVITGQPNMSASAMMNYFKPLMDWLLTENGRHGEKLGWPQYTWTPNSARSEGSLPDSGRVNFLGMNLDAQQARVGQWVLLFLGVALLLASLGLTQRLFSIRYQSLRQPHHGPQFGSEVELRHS
Description: ACE inhibition assay. The format is biochemical. The protocol:
Peptide-ACE peptidase inhibitor conjugate compounds were assessed in an ACE inhibition assay using purified ACE enzyme and chromogenic substrates. An ACE stock solution was prepared by dissolving 0.1 unit of enzyme (ACE from rabbit lung, Sigma Chemical Co., St. Louis, Mo.) in 0.640 mL of HEPES buffer (0.1 M, pH=8). A 2 mM stock solution of substrate (N-benzyloxycarbonyl-Phe-His-Leu-OH) dissolved in methanol. The ACE inhibitor compounds were dissolved in phosphate buffer (0.1 M, pH=8) at concentrations of 0.0, 1, 10, 20, 60 and 100 μM. For the inhibition assay, six 2 mL microcentrifuge tubes were prepared containing 1.45 mL of phosphate buffer pH=8, 0.05 mL of 10% NaCl and 0.015 mL of substrate solution. To each microcentrifuge tube was added 0.015 mL of one of the ACE inhibitor compound's stock solutions. The solutions were heated at 37° C. for about 5 minutes. The reaction was started by the addition of 5 μL of the ACE stock solution to each tube mixture (30 seconds in between). The reaction mixtures were incubated at 37° C. After 5 min, 10 min, 30 min and 60 min., aliquots of 100 μL were taken from each tube (each sample was taken in intervals of 30 seconds). Tubes containing the 100 μL sample were floated in a boiling water bath for 5 min. and then cooled. The reaction samples were then treated with 20 μL of 2M NaOH and 20 μL of 0.1% phthaldialdehyde solution. The tubes were shaken for 4 minutes and 10 μL of 6 M HCl were added. […] Initial rates were determined from linear portions of product release curves. Starting substrate concentration in all assays was 20 μM. Apparent binding constants (Kd^app or Ki^app) of inhibitors to ACE were determined by fitting inhibition curves (initial rate vs. inhibitor concentration) to equation:
[formula] where v0 is reaction rate in the absence of inhibitor and [I]-inhibitor concentration. Fits were done by least-squares method using KaleidaGraph 3.6 (Synergy Software, Reading Pa.).

In data set [3] the test system is plasma carboxypeptidase. Description: Carboxypeptidase activity assay, PYY(3-36) in human plasma. Type of data set: biochemical. To be noted: for inhibition of the formation of PYY(3-35) (in words): 0.5 mM in human plasma, FIGS. 10-12; for inhibition of plasma carboxypeptidase activity (in words): protease inhibitor at a final concentration of 1 mM. As for the experimental part:
Carboxypeptidase activity assays were performed in the presence of various agents to test for carboxypeptidase inhibitor activity of the agents.
The remainder of the sample was placed in an incubator at 37° C., mixing at 600 RPM for sixty minutes. At 10 minute intervals, a 100 μl sample of the mixture was removed and transferred to a separate microcentrifuge tubes. Following the transfer of the 100 μL sample at the zero time point and each 10 minute interval, each collected sample was extracted by slow addition of 100 μl cold 0.2% formic acid:acetonitrile, while mixing. After addition of the acetonitrile solution, the sample was vortex mixed at high speed for 15 seconds. The extracted samples were stored at −20° C. for at least 20 minutes and then centrifuged at 11,000×g for 10 minutes at 5° C. The supernatant of each sample was transferred to a new microcentrifuge tube, centrifuged again, and finally transferred for LC/MS analysis. The MS analysis was a Q1 single ion monitoring method that detects the most intense ion of the parent molecule and the peptide fragment of interest.

Like-named read-outs stand apart in the source and are kept apart here. Where no end group is shown, it is not given here. [ ]: non-standard residue; d: D form. NMeY = CN[C@@H](Cc1ccc(O)cc1)C(=O)O

On to `CC[C@H](C)[C@H](NC(=O)[C@H](Cc1ccccc1)NC(=O)[C@H](CC(C)C)NC(=O)[C@H](CCCNC(=N)N)NC(=O)[C@@H](NC(=O)[C@H](C)NC(=O)[C@H](CCC(=O)O)NC(=O)[C@H](CCC(=O)O)NC(=O)[C@H](CCC(=O)O)NC(=O)[C@H](CC(C)C)NC(=O)[C@H](CCC(N)=O)NC(=O)[C@H](CCCCN)NC(=O)[C@H](CO)NC(=O)[C@H](CC(C)C)NC(=O)[C@H](CC(=O)O)NC(=O)[C@H](CO)NC(=O)[C@@H](NC(=O)[C@H](Cc1ccccc1)NC(=O)[C@@H](NC(=O)CNC(=O)[C@H](CCC(=O)O)NC(=O)CNC(=O)[C@@H](N)Cc1c[nH]cn1)[C@@H](C)O)[C@@H](C)O)C(C)C)C(=O)N[C@@H](CCC(=O)O)C(=O)N[C@@H](Cc1c[nH]c2ccccc12)C(=O)N[C@@H](CC(C)C)C(=O)N[C@@H](CCCCN)C(=O)N[C@@H](CCC(N)=O)C(=O)NCC(=O)NCC(=O)N1CCC[C@H]1C(=O)N[C@@H](CO)C(=O)N[C@@H](CCCCN)C(=O)N[C@@H](CCC(=O)O)C(=O)N[C@H](C(=O)N[C@H](C(=O)N[C@@H](CO)C(=O)NCCOCCOCC(=O)NCCCC[C@H](N)C(=O)N1CCC[C@H]1C#N)[C@@H](C)CC)[C@@H](C)CC` [Compound 5954, [^14Leu,^28Gln]Exendin-4-(1-32)-fGLP-1-(33-37)-miniPEG-(S)-2,6-diamino-1-(pyrrolidin-2-cyano-1-yl)hexan-1-amide], for which, in data set [1], the “Stability in hKBBM” value is reported as 57%. As to `NCCCC[C@H](N[C@@H](CCc1ccccc1)C(=O)O)C(=O)N1CCC[C@H]1C(=O)O` [Lisinopril, reference compound], the 50% inhibitory concentration (IC50) in data set [2] (commercial lisinopril, read-out: ACE inhibition IC50) came to 0.0013 µM; in data set [2] (synthesized lisinopril, read-out: ACE inhibition IC50) it was 0.0028 µM. As to `CNC(Cc1ccc(O)cc1)C(N)=O` (centres unmarked) [N-methyl-Tyr-NH2], the “inhibition of the formation of PYY(3-35) (in words)” value in data set [3] is on record as “did not inhibit”. On the same count and under the same terms, the result for “^36N-methyl-Tyr-amide-PYY(34-36) (Gln-Arg-[NMeY]-NH2; N-terminus assumed; SMILES CN(C(=O)[C@H](CCCNC(=N)N)NC(=O)[C@@H](N)CCC(N)=O)[C@@H](Cc1ccc(O)cc1)C(N)=O) [N-terminal truncation of 36N-methyl-Tyr-amide-PYY(3-36)]” reads “did not inhibit”.

Take `CC[C@H](C)[C@H](NC(=O)[C@H](Cc1ccccc1)NC(=O)[C@H](CC(C)C)NC(=O)[C@H](CCCNC(=N)N)NC(=O)[C@@H](NC(=O)[C@H](C)NC(=O)[C@H](CCC(=O)O)NC(=O)[C@H](CCC(=O)O)NC(=O)[C@H](CCC(=O)O)NC(=O)[C@H](CC(C)C)NC(=O)[C@H](CCC(N)=O)NC(=O)[C@H](CCCCN)NC(=O)[C@H](CO)NC(=O)[C@H](CC(C)C)NC(=O)[C@H](CC(=O)O)NC(=O)[C@H](CO)NC(=O)[C@@H](NC(=O)[C@H](Cc1ccccc1)NC(=O)[C@@H](NC(=O)CNC(=O)[C@H](CCC(=O)O)NC(=O)CNC(=O)[C@@H](N)Cc1c[nH]cn1)[C@@H](C)O)[C@@H](C)O)C(C)C)C(=O)N[C@@H](CCC(=O)O)C(=O)N[C@@H](Cc1ccccc1)C(=O)N[C@@H](CC(C)C)C(=O)N[C@@H](CCCCN)C(=O)N[C@@H](CC(N)=O)C(=O)NCC(=O)NCC(=O)NCCCC[C@H](NC(CCc1ccccc1)C(=O)O)C(=O)N1CCCC1C(=O)O` (stereo partly drawn) [3633/42/1, [^14Leu,^25Phe]Exendin-4(1-28)-Gly-Gly-CONH-Lisinopril diacid]: the half-inhibitory concentration (IC50) in data set [2] came out at 1.5 µM.

`CC(C)C[C@H](NP(=O)(O)O[C@@H]1O[C@@H](C)[C@H](O)[C@@H](O)[C@H]1O)C(=O)N[C@@H](Cc1c[nH]c2ccccc12)C(=O)O` [phosphoramidon, reference compound]: the “inhibition of plasma carboxypeptidase activity (in words)” value in data set [3] is “not”. In the case of “^36N-methyl-Tyr-amide-PYY(22-36) (ASLRHYLNLVTRQR[NMeY]-NH2; N-terminus assumed; SMILES CC(C)C[C@H](NC(=O)[C@H](CO)NC(=O)[C@H](C)N)C(=O)N[C@@H](CCCNC(=N)N)C(=O)N[C@@H](Cc1c[nH]cn1)C(=O)N[C@@H](Cc1ccc(O)cc1)C(=O)N[C@@H](CC(C)C)C(=O)N[C@@H](CC(N)=O)C(=O)N[C@@H](CC(C)C)C(=O)N[C@H](C(=O)N[C@H](C(=O)N[C@@H](CCCNC(=N)N)C(=O)N[C@@H](CCC(N)=O)C(=O)N[C@@H](CCCNC(=N)N)C(=O)N(C)[C@@H](Cc1ccc(O)cc1)C(N)=O)[C@@H](C)O)C(C)C) [N-terminal truncation of 36N-methyl-Tyr-amide-PYY(3-36)]”, in data set [3], the “inhibition of the formation of PYY(3-35) (in words)” value is “measurable but lower activity”. For the molecule `O=C(O)CN(CCN(CC(=O)O)CC(=O)O)CC(=O)O` [EDTA, reference compound], the “inhibition of plasma carboxypeptidase activity (in words)” value in data set [3] is “not”.

On to `NCCc1ccc(S(=O)(=O)F)cc1` [AEBSF, 4-(2-aminoethyl)-bezenesulfonylfluoride, reference compound], for which the “inhibition of plasma carboxypeptidase activity (in words)” value in data set [3] is recorded as “inhibited”. Consider `CC[C@H](C)[C@H](NC(=O)[C@H](CC(C)C)NC(=O)[C@H](Cc1c[nH]c2ccccc12)NC(=O)[C@H](CC(=O)O)NC(=O)[C@@H](NC(=O)[C@H](Cc1ccccc1)NC(=O)[C@H](CCC(=O)O)NC(=O)[C@H](CCCCN)NC(=O)[C@H](C)NC(=O)[C@H](C)NC(=O)[C@H](CCCCN)NC(=O)[C@H](CCC(=O)O)NC(=O)[C@H](CC(=O)O)NC(=O)[C@H](CC(C)C)NC(=O)[C@H](CCC(N)=O)NC(=O)[C@H](CCC(N)=O)NC(=O)[C@@H](NC(=O)[C@@H](NC(=O)[C@H](CC(=O)O)NC(=O)[C@H](CO)NC(=O)[C@@H](NC(=O)[C@H](Cc1ccccc1)NC(=O)[C@@H](NC(=O)CNC(=O)[C@H](CCC(=O)O)NC(=O)[C@H](C)NC(=O)[C@@H](N)Cc1c[nH]cn1)[C@@H](C)O)[C@@H](C)O)C(C)C)[C@@H](C)O)[C@@H](C)CC)C(=O)N[C@@H](CC(N)=O)C(=O)NCC(=O)NCC(=O)N1CCC[C@H]1C(=O)N[C@@H](CO)C(=O)N[C@@H](CCCCN)C(=O)N[C@@H](CCC(=O)O)C(=O)N[C@H](C(=O)N[C@H](C(=O)N[C@@H](CO)C(=O)NCCOCCOCCOCC(=O)NCCOCCOCC(=O)NCCCC[C@H](NC(CCc1ccccc1)C(=O)O)C(=O)N1CCC[C@H]1C(=O)O)[C@@H](C)CC)[C@@H](C)CC` (some centres unmarked) [Compound 5713], for which the IC50 in data set [2] (substrate N-benzyloxycarbonyl-Phe-His-Leu-OH 20 μM, read-out: ACE inhibition IC50) is 0.7 µM.

As usually defined, the IC50 is the concentration that gives 50% inhibition.
